# Test results: US10047096B2, “Substituted pyridobenzodiazepinone-derivatives and use thereof” (Bayer Pharma Aktiengesellschaft, priority 2014, dated 2018)
# Biological target: human PDGFRβ (Homo sapiens (Human), UniProt P09619)
# Experiment: PDGFRβ kinase assay (PDGFRβ-HTRF)
# Format: biochemical
# Conditions: 10 μM ATP; some mean values from multiple determinations
# Description: The PDGFRβ-inhibitory activity of the inventive compounds was determined in the PDGFRβ-HTRF assay described hereinafter.
# The kinase used was a recombinant fusion protein composed of N-terminal GST and a C-terminal fragment of human PDGFRβ (amino acids R561-L1106), expressed in baculovirus-infected insect cells (Sf9) and purified by affinity chromatography (from ProQinase GmbH, Freiburg, Germany). The substrate used for the kinase reaction was biotinylated poly-Glu,Tyr (4:1) copolymer (from Cisbio Bioassays, Codolet, France).
# For the assay, 50 nl of a 100-fold concentrated solution of the test substance in DMSO was pipetted into a black “low-volume 384 well” microtitre plate (from Greiner Bio-One, Frickenhausen, Germany), then 2 μl of a solution of PDGFRβ in assay buffer [50 mM HEPES/NaOH pH 7.5, 10 mM MgCl2, 2.5 mM dithiothreitol, 0.01% (v/v) Triton-X100 (from Sigma)] was added and the mixture was incubated for 15 min, in order to enable preliminary binding of the substance to the enzyme before the kinase reaction. […] The resulting mixture was incubated at 22° C. for 1 h to allow formation of a complex of the biotinylated phosphorylated substrate and the detection reagents.
# Subsequently, the amount of the phosphorylated substrate was evaluated by measuring the resonance energy transfer from the PT66-Eu chelate to the streptavidin-XL665. […] The IC50 values were calculated by a 4-parameter fit.
# human PDGFRβ, sequence (P09619 561-1106): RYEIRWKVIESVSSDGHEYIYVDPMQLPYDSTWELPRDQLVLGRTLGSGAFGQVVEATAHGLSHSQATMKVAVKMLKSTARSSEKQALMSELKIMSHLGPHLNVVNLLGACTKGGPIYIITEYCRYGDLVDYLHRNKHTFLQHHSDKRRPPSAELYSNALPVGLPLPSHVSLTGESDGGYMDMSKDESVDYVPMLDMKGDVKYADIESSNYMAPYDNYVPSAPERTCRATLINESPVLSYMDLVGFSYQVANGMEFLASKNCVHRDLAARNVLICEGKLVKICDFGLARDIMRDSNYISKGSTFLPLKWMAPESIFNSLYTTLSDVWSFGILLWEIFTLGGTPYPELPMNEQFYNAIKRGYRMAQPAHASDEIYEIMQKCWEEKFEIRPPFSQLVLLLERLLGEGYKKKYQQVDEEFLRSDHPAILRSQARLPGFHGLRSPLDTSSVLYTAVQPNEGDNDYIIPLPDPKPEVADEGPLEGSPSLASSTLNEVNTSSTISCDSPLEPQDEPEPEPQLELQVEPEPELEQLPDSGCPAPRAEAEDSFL
row,IC50 [nM],SMILES
1,2.1,Cc1ccc(O)cc1Nc1ccnc2c1C(=O)Nc1cc(CNC3CCCC3)ccc1N2 [Example 154]
2,2.24,Cc1ccc(O)cc1Nc1ccnc2c1C(=O)Nc1cc(CNCCF)ccc1N2 [Example 126]
3,1.97,CCCNCc1ccc2c(c1)NC(=O)c1c(Nc3cc(O)ccc3C)ccnc1N2 [Example 125]
4,213,"Cc1cc(F)c(Nc2ccnc3c2C(=O)Nc2cc(C(=O)O)ccc2N3)cc1O [Example 79, 4-[(2-Fluoro-5-hydroxy-4-methylphenyl)amino]-5-oxo-6,11-dihydro-5H-pyrido[2,3-b][1,5]benzodiazepine-8-carboxylic acid]"
5,5.02,"Cc1cc(F)c(Nc2ccnc3c2C(=O)Nc2cc(CN4CCC(O)C(C)(C)C4)ccc2N3)cc1O (racemic) [Example 166, rac-4-[(2-Fluoro-5-hydroxy-4-methylphenyl)amino]-8-[(4-hydroxy-3,3-dimethylpiperidin-1-yl)methyl]-6,11-dihydro-5H-pyrido[2,3-b][1,5]benzodiazepin-5-one]"
6,4.02,CCOCCC(C)NCc1ccc2c(c1)NC(=O)c1c(Nc3cc(O)ccc3C)ccnc1N2 (stereo not drawn) [Example 118]
7,0.626,"CCOC(=O)[C@H]1C[C@@H](NCc2ccc3c(c2)NC(=O)c2c(Nc4cc(O)c(C)cc4F)ccnc2N3)C1 [Example 191, cis-Ethyl 3-[({4-[(2-fluoro-5-hydroxy-4-methylphenyl)amino]-5-oxo-6,11-dihydro-5H-pyrido[2,3-b][1,5]benzodiazepin-8-yl}methyl)amino]cyclobutanecarboxylate]"
8,3.71,"Cc1cc(F)c(Nc2ccnc3c2C(=O)Nc2cc(CN4CC5CC5C4CO)ccc2N3)cc1O (stereo not drawn) [Example 164, 4-[(2-Fluoro-5-hydroxy-4-methylphenyl)amino]-8-{[cis-2-(hydroxymethyl)-3-azabicyclo[3.1.0]hex-3-yl]methyl}-6,11-dihydro-5H-pyrido[2,3-b][1,5]benzodiazepin-5-one]"
9,2.23,"CCOC1CCCN(Cc2ccc3c(c2)NC(=O)c2c(Nc4cc(O)c(C)cc4F)ccnc2N3)C1 (racemic) [Example 67, rac-8-[(3-Ethoxypiperidin-1-yl)methyl]-4-[(2-fluoro-5-hydroxy-4-methylphenyl)amino]-6,11-dihydro-5H-pyrido[2,3-b][1,5]benzodiazepin-5-one]"
10,5.77,"Cc1ccc(O)cc1Nc1ccnc2c1C(=O)Nc1cc(CNCc3cccc(Cl)c3)ccc1N2 [Example 15, 8-{[(3-Chlorobenzyl)amino]methyl}-4-[(5-hydroxy-2-methylphenyl)amino]-6,11-dihydro-5H-pyrido[2,3-b][1,5]benzodiazepin-5-one]"
11,3.25,"CCNCc1ccc2c(c1)NC(=O)c1c(Nc3cc(O)ccc3C)ccnc1N2 [Example 25, 8-[(Ethylamino)methyl]-4-[(5-hydroxy-2-methylphenyl)amino]-6,11-dihydro-5H-pyrido[2,3-b][1,5]benzodiazepin-5-one]"
12,2.98,"CCCCNCc1ccc2c(c1)NC(=O)c1c(Nc3cc(O)ccc3C)ccnc1N2 [Example 23, 8-[(Butylamino)methyl]-4-[(5-hydroxy-2-methylphenyl)amino]-6,11-dihydro-5H-pyrido[2,3-b][1,5]benzodiazepin-5-one]"
13,15.3,"Cc1cc(F)c(Nc2ccnc3c2C(=O)Nc2cc(C#N)ccc2N3)cc1O [Example 27, 4-[(2-Fluoro-5-hydroxy-4-methylphenyl)amino]-5-oxo-6,11-dihydro-5H-pyrido[2,3-b][1,5]benzodiazepine-8-carbonitrile]"
14,1.98,"Cc1cc(F)c(Nc2ccnc3c2C(=O)Nc2cc(CN4CCCC(O)(c5ccccc5)C4)ccc2N3)cc1O (racemic) [Example 73, rac-4-[(2-Fluoro-5-hydroxy-4-methylphenyl)amino]-8-[(3-hydroxy-3-phenylpiperidin-1-yl)methyl]-6,11-dihydro-5H-pyrido[2,3-b][1,5]benzodiazepin-5-one]"
15,7.03,"N#Cc1ccc2c(c1)NC(=O)c1c(Nc3cc(O)c(F)cc3F)ccnc1N2 [Example 38, 4-[(2,4-Difluoro-5-hydroxyphenyl)amino]-5-oxo-6,11-dihydro-5H-pyrido[2,3-b][1,5]benzodiazepine-8-carbonitrile]"
